Source: patent EP0726263A2, “Herbicidal (1,3,4)oxadiazoles and thiadiazoles” (American Cyanamid Company, priority 1995, dated 1996)

Legend:
Type in all cases: in vivo
[1] = tested on: Triticum aestivum; assay: Herbicidal activity, postemergence test; settings: post; sprayed onto seedling plants, 800 g of active material per hectare; evaluated 2 weeks after treatment
Method: (§1) To evaluate their herbicidal activity, compounds according to the invention are tested using a representative range of plants: TRZAW Triticum aestivum HORVW Hordeum vulgare ZEAMX Zea mays GOSHI Gossypium hirsutum HELAN Helianthus annuus GLYMA Glycine max ALOMY Alopecurus myosuroides SETVI Setaria viridis ECHCG Echinochloa crus-galli GALAP Galium aparine STEME Stellaria media VERPE Veronica persica VIOAR Viola arvensis IPOHE Ipomoea hederacea LAMPU Lamium purpureum PAPRH Papaver rhoeas MATIN Matricaria inodora AMARE Amaranthus retroflexus ABUTH Abutilon theophrasti AMBEL Ambrosia artemisifolia CHEAL Chenopodium album
(§2) The tests fall into two categories, preemergence and postemergence. The preemergence tests involve spraying a liquid formulation of the compound onto the soil in which the seeds have recently been sown. The postemergence tests involve spraying a liquid formulation of the compound onto seedling plants.
(§3) The soil used in the tests is a prepared horticultural loam.
(§4) The formulations used in the tests are prepared from solutions of the test compounds in acetone containing 0.4% by weight of an alkylphenol/ethylene oxide condensate available under the trade mark TRITON X-155. These acetone solutions are diluted with water and the resulting formulations applied at dosage levels corresponding to 800 g of active material per hectare in a volume equivalent to 900 litres per hectare.
(§5) In the preemergence tests untreated sown soil and in the postemergence tests untreated soil bearing seedling plants are used as controls.
(§6) Results of herbicide evaluation are expressed on a rating scale (0-9). The scale is based upon a visual observation of plant stand, vigor, malformation, size, chlorosis, and general plant appearance as compared to a control. Preemergence and postemergence treatments are evaluated at 3 and 2 weeks after treatment, respectively.

[2] = tested on: Abutilon theophrasti; assay: Herbicidal activity, postemergence test; settings: post; sprayed onto seedling plants, 800 g of active material per hectare; evaluated 2 weeks after treatment
Method: as §1, §2, §3, §4, §5, §6

[3] = tested on: Glycine max; assay: Herbicidal activity, postemergence test; settings: post; sprayed onto seedling plants, 800 g of active material per hectare; evaluated 2 weeks after treatment
Method: as §1, §2, §3, §4, §5, §6

[4] = tested on: Alopecurus myosuroides; assay: Herbicidal activity, postemergence test; settings: post; sprayed onto seedling plants, 800 g of active material per hectare; evaluated 2 weeks after treatment
Method: as §1, §2, §3, §4, §5, §6

[5] = tested on: Setaria viridis; assay: Herbicidal activity, postemergence test; settings: post; sprayed onto seedling plants, 800 g of active material per hectare; evaluated 2 weeks after treatment
Method: as §1, §2, §3, §4, §5, §6

[6] = tested on: Ambrosia artemisifolia; assay: Herbicidal activity, postemergence test; settings: post; sprayed onto seedling plants, 800 g of active material per hectare; evaluated 2 weeks after treatment
Method: as §1, §2, §3, §4, §5, §6

[7] = tested on: Veronica persica; assay: Herbicidal activity, postemergence test; settings: post; sprayed onto seedling plants, 800 g of active material per hectare; evaluated 2 weeks after treatment
Method: as §1, §2, §3, §4, §5, §6

[8] = tested on: Hordeum vulgare; assay: Herbicidal activity, postemergence test; settings: post; sprayed onto seedling plants, 800 g of active material per hectare; evaluated 2 weeks after treatment
Method: as §1, §2, §3, §4, §5, §6

[9] = tested on: Ipomoea hederacea; assay: Herbicidal activity, postemergence test; settings: post; sprayed onto seedling plants, 800 g of active material per hectare; evaluated 2 weeks after treatment
Method: as §1, §2, §3, §4, §5, §6

[10] = tested on: Stellaria media; assay: Herbicidal activity, postemergence test; settings: post; sprayed onto seedling plants, 800 g of active material per hectare; evaluated 2 weeks after treatment
Method: as §1, §2, §3, §4, §5, §6

[11] = tested on: Lamium purpureum; assay: Herbicidal activity, postemergence test; settings: post; sprayed onto seedling plants, 800 g of active material per hectare; evaluated 2 weeks after treatment
Method: as §1, §2, §3, §4, §5, §6

[12] = tested on: Chenopodium album; assay: Herbicidal activity, postemergence test; settings: post; sprayed onto seedling plants, 800 g of active material per hectare; evaluated 2 weeks after treatment
Method: as §1, §2, §3, §4, §5, §6

[13] = tested on: Amaranthus retroflexus; assay: Herbicidal activity, postemergence test; settings: post; sprayed onto seedling plants, 800 g of active material per hectare; evaluated 2 weeks after treatment
Method: as §1, §2, §3, §4, §5, §6

[14] = tested on: Zea mays; assay: Herbicidal activity, postemergence test; settings: post; sprayed onto seedling plants, 800 g of active material per hectare; evaluated 2 weeks after treatment
Method: as §1, §2, §3, §4, §5, §6

[15] = tested on: Papaver rhoeas; assay: Herbicidal activity, postemergence test; settings: post; sprayed onto seedling plants, 800 g of active material per hectare; evaluated 2 weeks after treatment
Method: as §1, §2, §3, §4, §5, §6

[16] = tested on: Galium aparine; assay: Herbicidal activity, postemergence test; settings: post; sprayed onto seedling plants, 800 g of active material per hectare; evaluated 2 weeks after treatment
Method: as §1, §2, §3, §4, §5, §6

[17] = tested on: Gossypium hirsutum; assay: Herbicidal activity, postemergence test; settings: post; sprayed onto seedling plants, 800 g of active material per hectare; evaluated 2 weeks after treatment
Method: as §1, §2, §3, §4, §5, §6

[18] = tested on: Matricaria inodora; assay: Herbicidal activity, postemergence test; settings: post; sprayed onto seedling plants, 800 g of active material per hectare; evaluated 2 weeks after treatment
Method: as §1, §2, §3, §4, §5, §6

[19] = tested on: Triticum aestivum; assay: Herbicidal activity, preemergence test; settings: pre; sprayed onto soil, 800 g of active material per hectare; evaluated 3 weeks after treatment
Method: as §1, §2, §3, §4, §5, §6

[20] = tested on: Abutilon theophrasti; assay: Herbicidal activity, preemergence test; settings: pre; sprayed onto soil, 800 g of active material per hectare; evaluated 3 weeks after treatment
Method: as §1, §2, §3, §4, §5, §6

[21] = tested on: Glycine max; assay: Herbicidal activity, preemergence test; settings: pre; sprayed onto soil, 800 g of active material per hectare; evaluated 3 weeks after treatment
Method: as §1, §2, §3, §4, §5, §6

[22] = tested on: Alopecurus myosuroides; assay: Herbicidal activity, preemergence test; settings: pre; sprayed onto soil, 800 g of active material per hectare; evaluated 3 weeks after treatment
Method: as §1, §2, §3, §4, §5, §6

[23] = tested on: Setaria viridis; assay: Herbicidal activity, preemergence test; settings: pre; sprayed onto soil, 800 g of active material per hectare; evaluated 3 weeks after treatment
Method: as §1, §2, §3, §4, §5, §6

[24] = tested on: Ambrosia artemisifolia; assay: Herbicidal activity, preemergence test; settings: pre; sprayed onto soil, 800 g of active material per hectare; evaluated 3 weeks after treatment
Method: as §1, §2, §3, §4, §5, §6

[25] = tested on: Veronica persica; assay: Herbicidal activity, preemergence test; settings: pre; sprayed onto soil, 800 g of active material per hectare; evaluated 3 weeks after treatment
Method: as §1, §2, §3, §4, §5, §6

[26] = tested on: Hordeum vulgare; assay: Herbicidal activity, preemergence test; settings: pre; sprayed onto soil, 800 g of active material per hectare; evaluated 3 weeks after treatment
Method: as §1, §2, §3, §4, §5, §6

[27] = tested on: Ipomoea hederacea; assay: Herbicidal activity, preemergence test; settings: pre; sprayed onto soil, 800 g of active material per hectare; evaluated 3 weeks after treatment
Method: as §1, §2, §3, §4, §5, §6

[28] = tested on: Stellaria media; assay: Herbicidal activity, preemergence test; settings: pre; sprayed onto soil, 800 g of active material per hectare; evaluated 3 weeks after treatment
Method: as §1, §2, §3, §4, §5, §6

[29] = tested on: Lamium purpureum; assay: Herbicidal activity, preemergence test; settings: pre; sprayed onto soil, 800 g of active material per hectare; evaluated 3 weeks after treatment
Method: as §1, §2, §3, §4, §5, §6

[30] = tested on: Chenopodium album; assay: Herbicidal activity, preemergence test; settings: pre; sprayed onto soil, 800 g of active material per hectare; evaluated 3 weeks after treatment
Method: as §1, §2, §3, §4, §5, §6

[31] = tested on: Amaranthus retroflexus; assay: Herbicidal activity, preemergence test; settings: pre; sprayed onto soil, 800 g of active material per hectare; evaluated 3 weeks after treatment
Method: as §1, §2, §3, §4, §5, §6

[32] = tested on: Zea mays; assay: Herbicidal activity, preemergence test; settings: pre; sprayed onto soil, 800 g of active material per hectare; evaluated 3 weeks after treatment
Method: as §1, §2, §3, §4, §5, §6

[33] = tested on: Papaver rhoeas; assay: Herbicidal activity, preemergence test; settings: pre; sprayed onto soil, 800 g of active material per hectare; evaluated 3 weeks after treatment
Method: as §1, §2, §3, §4, §5, §6

[34] = tested on: Galium aparine; assay: Herbicidal activity, preemergence test; settings: pre; sprayed onto soil, 800 g of active material per hectare; evaluated 3 weeks after treatment
Method: as §1, §2, §3, §4, §5, §6

[35] = tested on: Gossypium hirsutum; assay: Herbicidal activity, preemergence test; settings: pre; sprayed onto soil, 800 g of active material per hectare; evaluated 3 weeks after treatment
Method: as §1, §2, §3, §4, §5, §6

[36] = tested on: Matricaria inodora; assay: Herbicidal activity, preemergence test; settings: pre; sprayed onto soil, 800 g of active material per hectare; evaluated 3 weeks after treatment
Method: as §1, §2, §3, §4, §5, §6

SMILES: C[C@H](NC(=O)c1nnc(-c2ccc(C(C)(C)C)cc2)o1)c1ccccc1 [Example 16]
- TRZAW control rating (0-9) [1]: 2 (slight effect)
- ABUTH control rating (0-9) [2]: 8 (approaching complete kill)
- GLXMA control rating (0-9) [3]: 4 (injury)
- ALOMY control rating (0-9) [4]: 3 (moderate effect)
- SETVI control rating (0-9) [5]: 9 (complete kill)
- AMBEL control rating (0-9) [6]: 8 (approaching complete kill)
- VERPE control rating (0-9) [7]: 9 (complete kill)
- HORVW control rating (0-9) [8]: 4 (injury)
- IPOHE control rating (0-9) [9]: 8 (approaching complete kill)
- STEME control rating (0-9) [10]: 9 (complete kill)
- LAMPU control rating (0-9) [11]: 9 (complete kill)
- CHEAL control rating (0-9) [12]: 7 (good herbicidal effect)
- AMARE control rating (0-9) [13]: 9 (complete kill)
- ZEAMX control rating (0-9) [14]: 3 (moderate effect)
- PAPRH control rating (0-9) [15]: 7 (good herbicidal effect)
- GALAP control rating (0-9) [16]: 7 (good herbicidal effect)
- GOSHI control rating (0-9) [17]: 9 (complete kill)
- MATIN control rating (0-9) [18]: 9 (complete kill)
- TRZAW control rating (0-9) [19]: 0 (no effect)
- ABUTH control rating (0-9) [20]: 1 (trace effect)
- GLXMA control rating (0-9) [21]: 0 (no effect)
- ALOMY control rating (0-9) [22]: 0 (no effect)
- SETVI control rating (0-9) [23]: 8 (approaching complete kill)
- AMBEL control rating (0-9) [24]: 3 (moderate effect)
- VERPE control rating (0-9) [25]: 9 (complete kill)
- HORVW control rating (0-9) [26]: 0 (no effect)
- IPOHE control rating (0-9) [27]: 1 (trace effect)
- STEME control rating (0-9) [28]: 6 (herbicidal effect)
- LAMPU control rating (0-9) [29]: 8 (approaching complete kill)
- CHEAL control rating (0-9) [30]: 7 (good herbicidal effect)
- AMARE control rating (0-9) [31]: 9 (complete kill)
- ZEAMX control rating (0-9) [32]: 0 (no effect)
- PAPRH control rating (0-9) [33]: 9 (complete kill)
- GALAP control rating (0-9) [34]: 0 (no effect)
- GOSHI control rating (0-9) [35]: 0 (no effect)
- MATIN control rating (0-9) [36]: 9 (complete kill)
